According to patent US20060252807A1, “Novel ortho-terphenyl inhibitors of p38 kinase and methods of treating inflammatory disorders” (Kalypsys, Inc., priority 2005, published 2006):

Molecular target: T1, active p38 alpha enzyme (Upstate Biotechnology) (Homo sapiens, UniProt Q16539)
T1 construct: purchased Upstate Biotechnology
Test: p38α biochemical assay (ATP turnover, luminescent detection, Cambrex PKlight)
Settings: p38α kinase; Table 1 Biological Activity
How it was run: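 Measures total ATP turnover by luminescence after human p38α phosphorylates full MapkapK2 protein. Final ATP is 1.4 uM, and incubation runs 2 hours at 30C. The buffer includes 100 mM MgCl2, 4 mM CaCl2 and 1 mg/ml BSA.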

T1 sequence (Q16539 whole entry): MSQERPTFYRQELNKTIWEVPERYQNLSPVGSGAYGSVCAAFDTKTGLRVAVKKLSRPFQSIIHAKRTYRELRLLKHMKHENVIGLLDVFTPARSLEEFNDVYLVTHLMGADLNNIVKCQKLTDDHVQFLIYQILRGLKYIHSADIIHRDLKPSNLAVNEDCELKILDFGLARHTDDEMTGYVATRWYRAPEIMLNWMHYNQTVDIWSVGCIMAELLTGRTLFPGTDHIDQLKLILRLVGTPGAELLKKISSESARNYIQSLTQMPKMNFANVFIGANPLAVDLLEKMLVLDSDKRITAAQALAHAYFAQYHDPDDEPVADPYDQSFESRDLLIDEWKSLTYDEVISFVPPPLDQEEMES

| IC50 [nM] | SMILES |
| --- | --- |
| > 1000 | CCOC(=O)N1CCC(NCc2nc(-c3ccc(F)cc3)c(-c3nc(C(=O)NC(C)C)cs3)o2)CC1 [Example 1164] |
| > 1000 | CC(C)NC(=O)c1csc(-c2oc(CNCCCNC(=O)OC(C)(C)C)nc2-c2ccc(F)cc2)n1 [Example 1165] |
| > 1000 | CC(C)NC(=O)c1csc(-c2oc(CNCc3ccc(C(F)(F)F)cc3)nc2-c2ccc(F)cc2)n1 [Example 1166] |
| > 1000 | CC(C)NC(=O)c1csc(-c2oc(CNCc3cccc(C(F)(F)F)c3)nc2-c2ccc(F)cc2)n1 [Example 1167] |
| > 1000 | CC(C)NC(=O)c1csc(-c2oc(CNCc3ccc(Cl)c(Cl)c3)nc2-c2ccc(F)cc2)n1 [Example 1168] |
| > 1000 | CC(C)NC(=O)c1csc(-c2oc(CNCc3ccc(Cl)cc3Cl)nc2-c2ccc(F)cc2)n1 [Example 1169] |
| ≤ 1000 | CC(C)NC(=O)c1csc(-c2oc(CNC3CCN(Cc4ccccc4)C3)nc2-c2ccc(F)cc2)n1 (stereo not shown) [Example 1170] |
| > 1000 | COc1ccc(OC)c(CCNCc2nc(-c3ccc(F)cc3)c(-c3nc(C(=O)NC(C)C)cs3)o2)c1 [Example 1171] |
| > 1000 | CC(C)NC(=O)c1csc(-c2oc(CNCc3ccc(N(C)C)cc3)nc2-c2ccc(F)cc2)n1 [Example 1172] |
| ≤ 1000 | COc1ccc(CNCc2nc(-c3ccc(F)cc3)c(-c3nc(C(=O)NC(C)C)cs3)o2)cc1O [Example 1173] |
| > 1000 | CC(C)NC(=O)c1csc(-c2oc(CNC3CCN(Cc4ccccc4)CC3)nc2-c2ccc(F)cc2)n1 [Example 1174] |
| ≤ 1000 | CC(C)NC(=O)c1csc(-c2oc(CNCc3ccccc3OC(F)(F)F)nc2-c2ccc(F)cc2)n1 [Example 1175] |
| ≤ 1000 | CC(C)NC(=O)c1csc(-c2oc(CNCCc3ccc(S(N)(=O)=O)cc3)nc2-c2ccc(F)cc2)n1 [Example 1176] |
| > 1000 | COc1ccc(C(=O)CNCc2nc(-c3ccc(F)cc3)c(-c3nc(C(=O)NC(C)C)cs3)o2)cc1 [Example 1177] |
| > 1000 | CC(C)NC(=O)c1csc(-c2oc(CNCCc3ccc4c(c3)OCO4)nc2-c2ccc(F)cc2)n1 [Example 1178] |
| > 1000 | CC(C)NC(=O)c1csc(-c2oc(CNCCC(c3ccccc3)c3ccccc3)nc2-c2ccc(F)cc2)n1 [Example 1179] |
| ≤ 1000 | Cc1ccc(S(=O)(=O)NCCNCc2nc(-c3ccc(F)cc3)c(-c3nc(C(=O)NC(C)C)cs3)o2)cc1 [Example 1180] |
| > 1000 | CC(C)NC(=O)c1csc(-c2oc(CBr)nc2-c2ccc(F)cc2)n1 [Example 1181] |
| ≤ 1000 | CC(C)NC(=O)c1csc(-c2oc(CN(C)C)nc2-c2ccc(F)cc2)n1 [Example 1182] |
| ≤ 1000 | CC(C)NC(=O)c1csc(-c2oc(CN3CCOCC3)nc2-c2ccc(F)cc2)n1 [Example 1183] |
| > 1000 | CCN(C)Cc1nc(-c2ccc(F)cc2)c(-c2nc(C(=O)NC(C)C)cs2)o1 [Example 1186] |
| > 1000 | C#CCN(C)Cc1nc(-c2ccc(F)cc2)c(-c2nc(C(=O)NC(C)C)cs2)o1 [Example 1187] |
| > 1000 | CCN(CC)Cc1nc(-c2ccc(F)cc2)c(-c2nc(C(=O)NC(C)C)cs2)o1 [Example 1188] |
| > 1000 | CCCN(C)Cc1nc(-c2ccc(F)cc2)c(-c2nc(C(=O)NC(C)C)cs2)o1 [Example 1189] |
| > 1000 | CC(C)NC(=O)c1csc(-c2oc(CN(C)CCO)nc2-c2ccc(F)cc2)n1 [Example 1190] |
| > 1000 | CC(C)NC(=O)c1csc(-c2oc(CN(C)CCC#N)nc2-c2ccc(F)cc2)n1 [Example 1191] |
| > 1000 | CC(C)CN(C)Cc1nc(-c2ccc(F)cc2)c(-c2nc(C(=O)NC(C)C)cs2)o1 [Example 1192] |
| > 1000 | CCN(Cc1nc(-c2ccc(F)cc2)c(-c2nc(C(=O)NC(C)C)cs2)o1)C(C)C [Example 1193] |

| IC50 [nM] | SMILES |
| --- | --- |
| > 1000 | CCCCN(C)Cc1nc(-c2ccc(F)cc2)c(-c2nc(C(=O)NC(C)C)cs2)o1 [Example 1194] |
| > 1000 | CCN(CCO)Cc1nc(-c2ccc(F)cc2)c(-c2nc(C(=O)NC(C)C)cs2)o1 [Example 1195] |
| > 1000 | CC(C)NC(=O)c1csc(-c2oc(CN3CCSC3)nc2-c2ccc(F)cc2)n1 [Example 1196] |
| > 1000 | CC(C)NC(=O)c1csc(-c2oc(CN3CCCCC3C)nc2-c2ccc(F)cc2)n1 (stereo not shown) [Example 1197] |
| > 1000 | CC1CCN(Cc2nc(-c3ccc(F)cc3)c(-c3nc(C(=O)NC(C)C)cs3)o2)CC1 [Example 1198] |
| > 1000 | CC(C)NC(=O)c1csc(-c2oc(CN3CCN(C)CC3)nc2-c2ccc(F)cc2)n1 [Example 1199] |
| > 1000 | CC(C)NC(=O)c1csc(-c2oc(CN3CCCC3CO)nc2-c2ccc(F)cc2)n1 (stereo not shown) [Example 1200] |
| > 1000 | CC(C)NC(=O)c1csc(-c2oc(CN3CCC[C@@H]3CO)nc2-c2ccc(F)cc2)n1 [Example 1201] |
| > 1000 | CCCCN(CC)Cc1nc(-c2ccc(F)cc2)c(-c2nc(C(=O)NC(C)C)cs2)o1 [Example 1202] |
| > 1000 | CCCN(CCC)Cc1nc(-c2ccc(F)cc2)c(-c2nc(C(=O)NC(C)C)cs2)o1 [Example 1203] |
| > 1000 | CC(C)NC(=O)c1csc(-c2oc(CN3CCSCC3)nc2-c2ccc(F)cc2)n1 [Example 1204] |
| > 1000 | CC(C)NC(=O)c1csc(-c2oc(CN(CCO)CCO)nc2-c2ccc(F)cc2)n1 [Example 1205] |
| > 1000 | CC1CC(C)CN(Cc2nc(-c3ccc(F)cc3)c(-c3nc(C(=O)NC(C)C)cs3)o2)C1 (stereo not shown) [Example 1206] |
| > 1000 | CC(C)NC(=O)c1csc(-c2oc(CN(C)C3CCCCC3)nc2-c2ccc(F)cc2)n1 [Example 1207] |
| > 1000 | CC(C)NC(=O)c1csc(-c2oc(CN3C(C)CCCC3C)nc2-c2ccc(F)cc2)n1 (stereo not shown) [Example 1208] |
| > 1000 | CC(C)NC(=O)c1csc(-c2oc(CN3CCC(N(C)C)C3)nc2-c2ccc(F)cc2)n1 (stereo not shown) [Example 1209] |
| > 1000 | CC(C)NC(=O)c1csc(-c2oc(CN3C[C@@H](C)N[C@@H](C)C3)nc2-c2ccc(F)cc2)n1 [Example 1210] |
| > 1000 | CC(C)NC(=O)c1csc(-c2oc(CN3CCCC(CO)C3)nc2-c2ccc(F)cc2)n1 (stereo not shown) [Example 1211] |
| > 1000 | COC[C@@H]1CCCN1Cc1nc(-c2ccc(F)cc2)c(-c2nc(C(=O)NC(C)C)cs2)o1 [Example 1212] |
| > 1000 | CC(C)NC(=O)c1csc(-c2oc(CN3CC(C)OC(C)C3)nc2-c2ccc(F)cc2)n1 (stereo not shown) [Example 1213] |
| > 1000 | CC(C)NC(=O)c1csc(-c2oc(CN3CCCCC3CO)nc2-c2ccc(F)cc2)n1 (stereo not shown) [Example 1214] |
| > 1000 | CCN(CCCCO)Cc1nc(-c2ccc(F)cc2)c(-c2nc(C(=O)NC(C)C)cs2)o1 [Example 1215] |
| > 1000 | CC(C)NC(=O)c1csc(-c2oc(CN3Cc4ccccc4C3)nc2-c2ccc(F)cc2)n1 [Example 1216] |
| > 1000 | CC(C)NC(=O)c1csc(-c2oc(CN(C)Cc3ccccc3)nc2-c2ccc(F)cc2)n1 [Example 1217] |
| > 1000 | CCN(Cc1nc(-c2ccc(F)cc2)c(-c2nc(C(=O)NC(C)C)cs2)o1)C1CCCCC1 [Example 1218] |
| > 1000 | CC(C)NC(=O)c1csc(-c2oc(CN3CCC(C(N)=O)CC3)nc2-c2ccc(F)cc2)n1 [Example 1219] |
| > 1000 | CC(=O)N[C@H]1CCN(Cc2nc(-c3ccc(F)cc3)c(-c3nc(C(=O)NC(C)C)cs3)o2)C1 [Example 1220] |
